pKi: −log10 of the molar value.

Assay [1] has as its target T1, Gastrin/cholecystokinin type B receptor (Homo sapiens, UniProt P32239).
T1 sequence (P32239 whole entry): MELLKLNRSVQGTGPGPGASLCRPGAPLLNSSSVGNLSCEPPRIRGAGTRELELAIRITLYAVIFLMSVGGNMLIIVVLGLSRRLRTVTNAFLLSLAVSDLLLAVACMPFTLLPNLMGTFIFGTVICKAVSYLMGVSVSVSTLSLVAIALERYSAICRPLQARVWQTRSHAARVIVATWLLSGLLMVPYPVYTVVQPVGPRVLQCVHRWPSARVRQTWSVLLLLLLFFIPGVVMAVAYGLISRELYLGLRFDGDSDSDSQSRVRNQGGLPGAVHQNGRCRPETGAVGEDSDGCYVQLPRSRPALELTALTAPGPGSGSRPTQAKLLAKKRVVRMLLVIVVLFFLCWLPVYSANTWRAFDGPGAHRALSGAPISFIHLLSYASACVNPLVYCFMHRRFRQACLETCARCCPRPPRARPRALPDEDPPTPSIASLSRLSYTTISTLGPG
The assay is described as follows: Inhibitory activity against Cholecystokinin type B receptor.

Assay [2] concerns the target T2, Cholecystokinin receptor type A (Homo sapiens, UniProt P32238).
T2 sequence (P32238 whole entry): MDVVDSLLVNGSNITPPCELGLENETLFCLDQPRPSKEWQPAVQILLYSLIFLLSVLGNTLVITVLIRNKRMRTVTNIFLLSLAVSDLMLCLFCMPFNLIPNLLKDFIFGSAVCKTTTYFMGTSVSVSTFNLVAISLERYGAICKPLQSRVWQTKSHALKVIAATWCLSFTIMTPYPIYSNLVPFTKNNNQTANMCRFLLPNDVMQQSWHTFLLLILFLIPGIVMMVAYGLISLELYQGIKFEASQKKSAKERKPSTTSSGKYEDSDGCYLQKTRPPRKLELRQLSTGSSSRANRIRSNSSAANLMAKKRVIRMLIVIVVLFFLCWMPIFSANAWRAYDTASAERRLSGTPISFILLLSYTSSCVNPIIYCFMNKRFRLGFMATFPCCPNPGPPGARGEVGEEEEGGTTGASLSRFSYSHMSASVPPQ
The assay can be described thus: Inhibitory activity against CCK-A receptor.

Assay [3] deals with Angiotensin-converting enzyme (Homo sapiens, UniProt P12821). The assay can be described thus: Inhibitory activity against Angiotensin I converting enzyme.
Angiotensin-converting enzyme, sequence (P12821 whole entry): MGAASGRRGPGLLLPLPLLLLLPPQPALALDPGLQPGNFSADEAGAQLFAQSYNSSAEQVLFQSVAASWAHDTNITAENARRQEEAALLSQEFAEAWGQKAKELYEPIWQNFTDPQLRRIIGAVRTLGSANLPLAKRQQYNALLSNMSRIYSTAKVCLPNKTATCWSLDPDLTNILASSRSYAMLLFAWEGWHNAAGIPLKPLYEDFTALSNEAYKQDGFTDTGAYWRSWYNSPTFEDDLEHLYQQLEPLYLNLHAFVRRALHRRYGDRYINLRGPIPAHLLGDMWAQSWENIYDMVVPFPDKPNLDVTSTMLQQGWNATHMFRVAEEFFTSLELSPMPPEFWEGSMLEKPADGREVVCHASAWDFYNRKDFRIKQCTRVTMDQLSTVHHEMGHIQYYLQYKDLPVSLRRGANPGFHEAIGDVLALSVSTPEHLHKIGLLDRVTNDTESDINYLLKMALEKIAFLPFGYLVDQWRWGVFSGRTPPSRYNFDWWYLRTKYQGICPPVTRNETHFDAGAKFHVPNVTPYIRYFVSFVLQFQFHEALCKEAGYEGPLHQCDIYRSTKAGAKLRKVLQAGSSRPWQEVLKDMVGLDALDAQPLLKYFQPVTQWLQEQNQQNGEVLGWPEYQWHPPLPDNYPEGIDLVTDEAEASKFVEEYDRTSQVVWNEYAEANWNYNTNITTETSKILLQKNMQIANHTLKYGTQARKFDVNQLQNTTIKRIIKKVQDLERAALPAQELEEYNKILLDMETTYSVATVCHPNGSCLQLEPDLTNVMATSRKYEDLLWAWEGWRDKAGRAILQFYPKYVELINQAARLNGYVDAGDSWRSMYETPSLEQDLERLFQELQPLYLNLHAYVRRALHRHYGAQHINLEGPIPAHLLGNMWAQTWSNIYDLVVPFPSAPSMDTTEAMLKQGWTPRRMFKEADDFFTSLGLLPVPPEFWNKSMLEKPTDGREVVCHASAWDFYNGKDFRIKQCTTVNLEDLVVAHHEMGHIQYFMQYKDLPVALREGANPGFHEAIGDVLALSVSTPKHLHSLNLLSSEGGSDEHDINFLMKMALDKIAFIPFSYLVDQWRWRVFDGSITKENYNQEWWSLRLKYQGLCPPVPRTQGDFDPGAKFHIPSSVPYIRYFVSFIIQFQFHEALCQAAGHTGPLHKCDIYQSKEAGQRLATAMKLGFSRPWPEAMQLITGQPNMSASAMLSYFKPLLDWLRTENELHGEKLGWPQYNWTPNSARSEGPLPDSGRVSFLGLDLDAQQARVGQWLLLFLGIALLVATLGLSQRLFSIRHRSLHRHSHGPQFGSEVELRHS

As for `C[C@@](N)(Cc1cn(C(=O)OC2C3CC4CC(C3)CC2C4)c2ccccc12)C(=O)NC[C@H](NC(=O)CCC(=O)O)c1ccccc1` (stereo partly drawn), in assay [1], the negative logarithm of the Ki (pKi) was 8.77.

In the case of `C[C@@](N)(Cc1cn(C(=O)OC2C3CC4CC(C3)CC2C4)c2ccccc12)C(=O)N[C@H](CC(=O)O)Cc1ccccc1` (stereo partly drawn), in assay [2], the pKi was 8.52.

The compound H-EWPRPQIPP-OH gave a pKi in assay [3] of 7.00.

The pKi is −log10 of the Ki, conventionally taken in molar units. A lower pKi goes with a high Ki.

Values taken from ChEMBL document CHEMBL1127221, “The design of a dipeptide library for screening at peptide receptor sites” (Bioorg Med Chem Lett, 1993).
